Data published in patent publication US6960575B2, “Thiazine derivatives” (Santen Pharmaceutical Co., Ltd., priority 1999, dated 2005).

Molecular target: T1, chymase extracted from a dog cardiac tissue (Canis lupus familiaris, UniProt P21842)
T1 construct: The obtained supernatant is used as a chymase enzyme solution; from tissue; host or cells: beagle heart, left ventricle (2.0 M KCl / 1% Triton X-100 extract)
T1 sequence (P21842 22-249): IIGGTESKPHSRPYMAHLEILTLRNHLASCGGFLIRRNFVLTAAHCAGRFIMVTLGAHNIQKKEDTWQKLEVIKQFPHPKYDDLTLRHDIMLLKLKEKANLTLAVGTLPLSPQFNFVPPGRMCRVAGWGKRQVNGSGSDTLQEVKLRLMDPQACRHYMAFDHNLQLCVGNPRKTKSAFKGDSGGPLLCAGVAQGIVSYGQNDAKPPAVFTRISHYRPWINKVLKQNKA
Assay: Chymase inhibitory effect (liberation of His-Leu from angiotensin I, fluorescence)
Type: biochemical
Conditions: substrate angiotensin I; 37° C., one hour; pH 8 reaction buffer; read-out: IC50 (concentration required to inhibit the chymase enzymatic activity by 50%)
From the text: Chymase (enzyme) causes angiotensin I (substrate) to liberate a dipeptide (His-Leu) by the enzyme reaction with the substrate. It was reported that an enzymatic activity of chymase can be measured by measuring fluorescence intensity of the resulting peptide (Biochem. Biophys. Res. Com., 149 (3) 1186 (1987)). Since drugs having chymase inhibitory activities suppress this liberation of the dipeptide, the chymase inhibitory activities of the drugs can be measured by measuring fluorescence intensity. In the present pharmacological test, chymase inhibitory effects of the present compounds were studied by using chymase extracted from a dog cardiac tissue (J. Biol. Chem., 265 (36), 22348 (1990)).
• 1. A beagle is killed by drawing blood under Nembutal anesthesia, a heart is enucleated, and left ventricle is separated. • 2. This left ventricle is finely minced, and the tissue weight is measured. • 3. A 0.02 M Tris-HCl buffer (pH 7.4) is added to the tissue in an amount of 10 times by volume the tissue weight. The obtained mixture is homogenized at 8,000 rpm for 20 seconds and then centrifuged at 4° C. and 21,000 rpm for 30 minutes, and the resulting supernatant is discarded. • 4. The same procedure as the above 3 is repeated twice for the residue. Then, a 0.02 M Tris-HCl buffer (pH 7.4) containing 1% Triton X-100 and 0.01 M potassium chloride is added to the residue in an amount of 10 times by volume the amount of the residue. The obtained mixture is homogenized at 8,000 rpm for 20 seconds, then incubated at 4° C. for one hour and centrifuged at 21,000 rpm for 30 minutes, and the supernatant is discarded. • 5. A 0.02 M Tris-HCl buffer (pH 7.4) containing 1% Triton X-100 and 0.5 M potassium chloride is added to the residue in an amount of 10 times by volume the amount of the residue. The obtained mixture is homogenized at 8,000 rpm for 20 seconds, then incubated at 4° C. for one hour and centrifuged at 21,000 rpm for 30 minutes, and the supernatant is discarded. • 6. A 0.02 M Tris-HCl buffer (pH 7.4) containing 1% Triton X-100 and 2.0 M potassium chloride is added to the residue in an amount of 10 times the amount of the residue. The obtained mixture is homogenized at 8,000 rpm for 20 seconds, then incubated at 4° C. for one hour and centrifuged at 21,000 rpm for 30 minutes. The obtained supernatant is used as a chymase enzyme solution. [2. Preparation of Reaction Buffer]
Tris-HCl and disodium ethylenediaminetetraacetate are dissolved in water so that their concentrations are 92.3 mM and 12.0 mM respectively to prepare a reaction buffer adjusted to pH 8.
Angiotensin I is dissolved in water to prepare a 1.54 mM substrate solution.
A test compound is dissolved in dimethyl sulfoxide to prepare 3.0×10^−3M, 3.0×10^−4 M, 3.0×10^−5 M and 3.0×10^−6 M test compound solutions.
• 1. The reaction buffer (32.5 μl), the substrate solution (75.0 μl), the chymase enzyme solution (37.5 μl) and the test compound solution (5 μl) are mixed. • 2. The obtained mixture is incubated at 37° C. for one hour. • 3. To the mixture is added 15% trichloroacetic acid (225 μl), and the whole is centrifuged at 4° C. and 14,000 rpm for five minutes. • 4. The supernatant is taken out. A 1% orthophthalaldehyde/methanol solution (165 μl) is added to 300 μl of this supernatant, and the whole is stirred and allowed to stand at room temperature for 10 minutes. • 5. 1.5 M Hydrochloric acid (300 μl) is added to the resulting mixture, and the whole is stirred and centrifuged at 4° C. and 14,000 rpm for two minutes. • 6. The supernatant is taken out and irradiated with light having a wavelength of 340 nm, and fluorescence intensity is measured at a wavelength of 455 nm.
The blank of this test is defined as follows. […]

Row | IC50 [nM] | Compound
1 | 250 | CC(C)OC(=O)C(=O)[C@H](Cc1ccccc1)NC(=O)CN1C(=O)C(C(C)C)N(S(=O)(=O)c2ccccc2)C=C1c1ccccc1 (mixture of isomers) [Compound No. 2-34, Isopropyl (3S)-3-{(3RS)-4-benzenesulfonyl-3-isopropyl-2-oxo-6-phenyl-1,2,3,4-tetrahydropyrazin-1-yl}methylcarbonylamino-2-oxo-4-phenylbutyrate]
2 | 210 | CC(C)OC(=O)C(=O)[C@H](Cc1ccccc1)NC(=O)CN1C(=O)C(C(C)C)N(C(=O)c2cccnc2)C=C1c1ccccc1 (mixture of isomers) [Compound No. 2-31, Isopropyl (3S)-3-{(3RS)-3-isopropyl-2-oxo-6-phenyl-4-(3-pyridylcarbonyl)-1,2,3,4-tetrahydropyrazin-1-yl}methylcarbonylamino-2-oxo-4-phenylbutyrate]
3 | 370 | CC(C)C1C(=O)N(CC(=O)N[C@@H](Cc2ccccc2)C(=O)C2=NC(C)(C)CO2)C(c2ccccc2)=CN1C(=O)c1ccccc1 (mixture of isomers) [Compound No. 10-7, (2S)-2-{(3RS)-4-Benzoyl-3-isopropyl-2-oxo-6-phenyl-1,2,3,4-tetrahydropyrazin-1-yl}methylcarbonylamino-1-(4,4-dimethyl-4,5-dihydro-1,3-oxazol-2-yl)-1-oxo-3-phenylpropane]
4 | 1500 | CC(=O)N1C=C(c2ccccc2)N(CC(=O)NC(Cc2ccccc2)C(=O)C(F)(F)F)C(=O)C1C(C)C (racemic) [Compound No. 4-1, (3RS)-3-{(3RS)-4-Acetyl-3-isopropyl-2-oxo-6-phenyl-1,2,3,4-tetrahydropyrazin-1-yl}methylcarbonylamino-2-oxo-4-phenyl-1,1,1-trifluorobutane]
5 | 200 | CC(C)OC(=O)C(=O)[C@H](Cc1ccccc1)NC(=O)CN1C(=O)[C@@H](C(C)C)N(C(=O)c2ccccc2)C=C1c1ccccc1 [Compound No. 2-22, Isopropyl (3S)-3-{(3R)-4-benzoyl-3-isopropyl-2-oxo-6-phenyl-1,2,3,4-tetrahydropyrazin-1-yl}methylcarbonylamino-2-oxo-4-phenylbutyrate]
6 | 360 | CC(C)OC(=O)C(=O)[C@H](Cc1ccccc1)NC(=O)CN1C(=O)C(C(C)C)N(C(=O)c2ccncc2)C=C1c1ccccc1 (mixture of isomers) [Compound No. 2-32, Isopropyl (3S)-3-{(3RS)-3-isopropyl-2-oxo-6-phenyl-4-(4-pyridylcarbonyl)-1,2,3,4-tetrahydropyrazin-1-yl}methylcarbonylamino-2-oxo-4-phenylbutyrate]
7 | 280 | COc1ccc(C2=CSC(C(C)C)C(=O)N2CC(=O)N[C@@H](Cc2ccccc2)C(=O)C(=O)OC(C)C)cc1 (mixture of isomers) [Compound No. 2-65, Isopropyl (3S)-3-{(2RS)-2-isopropyl-5-(4-methoxyphenyl)-3-oxo-3,4-dihydro-2H-1,4-thiazin-4-yl}methylcarbonylamino-2-oxo-4-phenylbutyrate]
8 | 3800 | CC(=O)N1C=C(c2ccccc2)N(CC(=O)N[C@@H](Cc2ccccc2)C(=O)c2nc3ccccc3s2)C(=O)C1C(C)C (mixture of isomers) [Compound No. 2-46, (2S)-2-{(3RS)-4-Acetyl-3-isopropyl-2-oxo-6-phenyl-1,2,3,4-tetrahydropyrazin-1-yl}methylcarbonylamino-1-(1,3-benzothiazol-2-yl)-1-oxo-3-phenylpropane]
9 | 500 | CC(=O)N1C=C(c2ccccc2)N(CC(=O)N[C@@H](Cc2ccccc2)C(=O)C2=NCCO2)C(=O)C1C(C)C (mixture of isomers) [Compound No. 2-47, (2S)-2-{(3RS)-4-Acetyl-3-isopropyl-2-oxo-6-phenyl-1,2,3,4-tetrahydropyrazin-1-yl}methylcarbonylamino-1-(4,5-dihydro-1,3-oxazol-2-yl)-1-oxo-3-phenylpropane]
10 | 1200 | CC(=O)N1C=C(c2ccccc2)N(CC(=O)N[C@@H](Cc2ccccc2)C(=O)C2=NCCS2)C(=O)C1C(C)C (mixture of isomers) [Compound No. 2-48, (2S)-2-{(3RS)-4-Acetyl-3-isopropyl-2-oxo-6-phenyl-1,2,3,4-tetrahydropyrazin-1-yl}methylcarbonylamino-1-(4,5-dihydro-1,3-thiazol-2-yl)-1-oxo-3-phenylpropane]
11 | 320 | CC(C)OC(=O)C(=O)[C@H](Cc1ccccc1)NC(=O)CN1C(=O)C(C(C)C)SC=C1c1ccccc1 (mixture of isomers) [Compound No. 2-63, Isopropyl (3S)-3-{(2RS)-2-isopropyl-3-oxo-5-phenyl-3,4-dihydro-2H-1,4-thiazin-4-yl}methylcarbonylamino-2-oxo-4-phenylbutyrate]

Tested on: not given
Assay: not given
Conditions: not given

Row | melting point [°C] | Compound
12 | 135 to 150 | CC(C)[C@@H]1C(=O)N(CC(=O)N[C@@H](Cc2ccccc2)C(=O)C2=NC(C)(C)CO2)C(c2ccccc2)=CN1C(=O)c1ccc[n+](Cc2ccccc2)c1.[Br-] [Compound No. 21-3, 1-Benzyl-3-[(2R)-4-{(1S)-1-benzyl-2-(4,4-dimethyl-4,5-dihydro-1,3-oxazol-2-yl)-2-oxoethylcarbamoylmethyl}-2-isopropyl-3-oxo-5-phenyl-1,2,3,4-tetrahydro-1-pyrazinylcarbonyl]pyridinium bromide]
13 | 110 | CC(C)[C@@H]1C(=O)N(CC(=O)N[C@@H](Cc2ccccc2)C(=O)C2=NC(C)(C)CO2)C(c2ccccc2)=CN1C(=O)c1ccc[n+](CC(N)=O)c1.[Br-]
14 | 78 to 85 | CC(C)[C@@H]1C(=O)N(CC(=O)N[C@@H](Cc2ccccc2)C(=O)C2=NC(C)(C)CO2)C(c2ccccc2)=CN1C(=O)c1cc[n+](CC(N)=O)cc1.[I-] [Compound No. 21-12, 4-{(2R)-4-[(1S)-1-Benzyl-2-(4,4-dimethyl-4,5-dihydro-1,3-oxazol-2-yl)-2-oxoethylcarbamoylmethyl]-2-isopropyl-3-oxo-5-phenyl-1,2,3,4-tetrahydro-1-pyrazinylcarbonyl}-1-(carbamoylmethyl)pyridinium iodide]
15 | 100 to 125 | CC(C)[C@@H]1C(=O)N(CC(=O)N[C@@H](Cc2ccccc2)C(=O)C2=NCC(C)(C)S2)C(c2ccccc2)=CN1C(=O)c1ccncc1 [Compound No. 10-10, (2S)-1-(5,5-Dimethyl-4,5-dihydro-1,3-thiazol-2-yl)-2-{(3R)-3-isopropyl-2-oxo-6-phenyl-4-(4-pyridylcarbonyl)-1,2,3,4-tetrahydropyrazin-1-yl}methylcarbonylamino-1-oxo-3-phenylpropane]
